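Test compounds were applied to cells in 96-well plates for 48 hours at 5 doses. TGI: total growth inhibition.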
Columns and labels:
Assay in all cases: NCI tumour cell line growth inhibition, 48 h
786-0 renal = test system: 786-0 renal
A498 renal = test system: A498 renal
A549 NSCLC = test system: A549 NSCLC
ACHN renal = test system: ACHN renal
BT-549 breast = test system: BT-549 breast
CAKI-1 renal = test system: CAKI-1 renal
CCRF-CEM leukemia = test system: CCRF-CEM leukemia
COLO 205 colon = test system: COLO 205 colon
DU-145 prostate = test system: DU-145 prostate
EKVX NSCLC = test system: EKVX NSCLC
HCC-2998 colon = test system: HCC-2998 colon
HCT-116 colon = test system: HCT-116 colon
HCT-15 colon = test system: HCT-15 colon
HOP-62 NSCLC = test system: HOP-62 NSCLC
HS 578T breast = test system: HS 578T breast
HT29 colon = test system: HT29 colon
K-562 leukemia = test system: K-562 leukemia
KM12 colon = test system: KM12 colon
M14 melanoma = test system: M14 melanoma
MALME-3M melanoma = test system: MALME-3M melanoma
MCF7 breast = test system: MCF7 breast
MDA-MB-231 breast = test system: MDA-MB-231 breast
MDA-MB-435 = test system: MDA-MB-435
MDA-N = test system: MDA-N
MOLT-4 leukemia = test system: MOLT-4 leukemia
NCI-H226 lung = test system: NCI-H226 lung
NCI-H23 lung = test system: NCI-H23 lung
NCI-H460 lung = test system: NCI-H460 lung
NCI/ADR-RES ovarian = test system: NCI/ADR-RES ovarian
OVCAR-4 ovarian = test system: OVCAR-4 ovarian
OVCAR-5 ovarian = test system: OVCAR-5 ovarian
OVCAR-8 ovarian = test system: OVCAR-8 ovarian
PC-3 prostate = test system: PC-3 prostate
RPMI-8226 leukemia = test system: RPMI-8226 leukemia
SF-268 CNS = test system: SF-268 CNS
SF-295 CNS = test system: SF-295 CNS
SF-539 CNS = test system: SF-539 CNS
SK-MEL-2 melanoma = test system: SK-MEL-2 melanoma
SK-MEL-28 melanoma = test system: SK-MEL-28 melanoma
SK-OV-3 ovarian = test system: SK-OV-3 ovarian
SN12C renal = test system: SN12C renal
SNB-19 CNS = test system: SNB-19 CNS
SNB-75 CNS = test system: SNB-75 CNS
SW-620 colon = test system: SW-620 colon
T-47D breast = test system: T-47D breast
U251 CNS = test system: U251 CNS
UACC-257 melanoma = test system: UACC-257 melanoma
UACC-62 melanoma = test system: UACC-62 melanoma
UO-31 renal = test system: UO-31 renal
HL-60(TB) leukemia = test system: HL-60(TB) leukemia
HOP-92 NSCLC = test system: HOP-92 NSCLC
IGROV1 ovarian = test system: IGROV1 ovarian
LOX IMVI melanoma = test system: LOX IMVI melanoma
NCI-H522 lung = test system: NCI-H522 lung
OVCAR-3 ovarian = test system: OVCAR-3 ovarian
RXF 393 renal = test system: RXF 393 renal
SK-MEL-5 melanoma = test system: SK-MEL-5 melanoma
SR leukemia = test system: SR leukemia
TK-10 renal = test system: TK-10 renal

O=C1c2ccccc2-c2c1c(-c1ccc(O)cc1O)nc1ccc3ccccc3c21
TGI (786-0 renal): > 100 µM
TGI (A498 renal): > 100 µM
TGI (A549 NSCLC): > 100 µM
TGI (ACHN renal): > 100 µM
TGI (BT-549 breast): > 100 µM
TGI (CAKI-1 renal): > 100 µM
TGI (CCRF-CEM leukemia): > 100 µM
TGI (COLO 205 colon): > 100 µM
TGI (DU-145 prostate): > 100 µM
TGI (EKVX NSCLC): > 100 µM
TGI (HCC-2998 colon): > 100 µM
TGI (HCT-116 colon): > 100 µM
TGI (HCT-15 colon): > 100 µM
TGI (HOP-62 NSCLC): > 100 µM
TGI (HS 578T breast): 75.2 µM
TGI (HT29 colon): > 100 µM
TGI (K-562 leukemia): > 100 µM
TGI (KM12 colon): > 100 µM
TGI (M14 melanoma): > 100 µM
TGI (MALME-3M melanoma): > 100 µM
TGI (MCF7 breast): > 100 µM
TGI (MDA-MB-231 breast): > 100 µM
TGI (MDA-MB-435): > 100 µM
TGI (MDA-N): > 100 µM
TGI (MOLT-4 leukemia): > 100 µM
TGI (NCI-H226 lung): > 100 µM
TGI (NCI-H23 lung): > 100 µM
TGI (NCI-H460 lung): > 100 µM
TGI (NCI/ADR-RES ovarian): > 100 µM
TGI (OVCAR-4 ovarian): > 100 µM
TGI (OVCAR-5 ovarian): > 100 µM
TGI (OVCAR-8 ovarian): > 100 µM
TGI (PC-3 prostate): > 100 µM
TGI (RPMI-8226 leukemia): > 100 µM
TGI (SF-268 CNS): > 100 µM
TGI (SF-295 CNS): > 100 µM
TGI (SF-539 CNS): > 100 µM
TGI (SK-MEL-2 melanoma): > 100 µM
TGI (SK-MEL-28 melanoma): > 100 µM
TGI (SK-OV-3 ovarian): > 100 µM
TGI (SN12C renal): > 100 µM
TGI (SNB-19 CNS): > 100 µM
TGI (SNB-75 CNS): > 100 µM
TGI (SW-620 colon): > 100 µM
TGI (T-47D breast): > 100 µM
TGI (U251 CNS): > 100 µM
TGI (UACC-257 melanoma): > 100 µM
TGI (UACC-62 melanoma): > 100 µM
TGI (UO-31 renal): > 100 µM

COc1cccc(C2c3cc4c(cc3OC(NNc3ccccc3)C2C)OCO4)c1O (stereo unspecified)
TGI (786-0 renal): 23.2 µM
TGI (A498 renal): 28.2 µM
TGI (A549 NSCLC): 19.2 µM
TGI (ACHN renal): 15.5 µM
TGI (BT-549 breast): 20.4 µM
TGI (CAKI-1 renal): 23.3 µM
TGI (CCRF-CEM leukemia): 21.7 µM
TGI (COLO 205 colon): 23.8 µM
TGI (DU-145 prostate): 18.9 µM
TGI (EKVX NSCLC): 22.1 µM
TGI (HCC-2998 colon): 6.47 µM
TGI (HCT-116 colon): 18 µM
TGI (HCT-15 colon): 12 µM
TGI (HL-60(TB) leukemia): 12.9 µM
TGI (HOP-62 NSCLC): 8.14 µM
TGI (HOP-92 NSCLC): 28.5 µM
TGI (HS 578T breast): 34.5 µM
TGI (HT29 colon): 23.3 µM
TGI (IGROV1 ovarian): 25.5 µM
TGI (K-562 leukemia): 11.9 µM
TGI (KM12 colon): 18.3 µM
TGI (LOX IMVI melanoma): 27.5 µM
TGI (M14 melanoma): 19.3 µM
TGI (MALME-3M melanoma): 19.1 µM
TGI (MCF7 breast): 19.6 µM
TGI (MDA-MB-231 breast): 27.9 µM
TGI (MDA-MB-435): 12.5 µM
TGI (MDA-N): 8.59 µM
TGI (MOLT-4 leukemia): 23.5 µM
TGI (NCI-H226 lung): 29.6 µM
TGI (NCI-H23 lung): 28 µM
TGI (NCI-H460 lung): 15.5 µM
TGI (NCI-H522 lung): 14.4 µM
TGI (OVCAR-3 ovarian): 8.36 µM
TGI (OVCAR-5 ovarian): 27.1 µM
TGI (OVCAR-8 ovarian): 21.1 µM
TGI (PC-3 prostate): 19.1 µM
TGI (RPMI-8226 leukemia): 22.6 µM
TGI (RXF 393 renal): 29.6 µM
TGI (SF-268 CNS): 42.4 µM
TGI (SF-295 CNS): 10.5 µM
TGI (SF-539 CNS): 9.87 µM
TGI (SK-MEL-2 melanoma): 25.7 µM
TGI (SK-MEL-28 melanoma): 24.7 µM
TGI (SK-MEL-5 melanoma): 20 µM
TGI (SK-OV-3 ovarian): 58.4 µM
TGI (SN12C renal): 23.5 µM
TGI (SNB-19 CNS): 32.4 µM
TGI (SNB-75 CNS): 47.4 µM
TGI (SR leukemia): 6.28 µM
TGI (SW-620 colon): 25.5 µM
TGI (T-47D breast): 31.1 µM
TGI (TK-10 renal): 17.3 µM
TGI (U251 CNS): 18.7 µM
TGI (UACC-257 melanoma): 17.7 µM
TGI (UACC-62 melanoma): 17.9 µM
TGI (UO-31 renal): 16.6 µM

Reference: PubChem BioAssay (NCI)
